Experimental data reported in patent US20230391736A1, “3-TETRAZOLYLMETHYL-1,3,5-TRIAZIN-2,4-DIONE COMPOUND INHIBITING CORONAVIRUS 3CL PROTEASE ACTIVITY AND PREPARATION METHOD AND USE THEREOF” (priority 2022, published 2023).
Read-outs that look alike come from different tables or passages of the source.

Target: SARS-CoV-2 3CL^pro (Severe acute respiratory syndrome coronavirus 2 (2019-nCoV) (SARS-CoV-2), UniProt P0DTD1)
Assay: biochemical
Conditions: FRET
[1] = class symbols, read-out: IC50 (nM), inhibitory activity against 3CL^pro

| Compound | IC50 [1] | IC50 (non-linear regression, read-out: IC50 against 3CL^pro) |
| --- | --- | --- |
| Cn1cc2cc(/N=c3\[nH]c(=O)n(Cc4nnnn4C)c(=O)n3Cc3cc(F)c(F)cc3F)c(Cl)cc2n1 [Compound 16] | < 200 nM | < 200 nM |
| Cn1cc2cc(/N=c3\[nH]c(=O)n(Cc4nnnn4C4CCC4)c(=O)n3Cc3cc(F)c(F)cc3F)c(Cl)cc2n1 [Compound 23] | 500 to 1000 nM | – |
| Cn1cc2cc(Nc3nc(=O)n(Cc4nnn[nH]4)c(=O)n3Cc3ccc(-c4ccccc4)cc3)c(Cl)cc2n1 [Compound 7, (E)-3-((1H-tetrazol-5-yl)methyl)-1-([1,1-biphenyl]-4-ylmethyl)-6-((6-chloro-2-methyl-2H-indazol-5-yl)imino)-1,3,5-triazin-2,4-dione] | > 1000 nM | – |
| CC(C)n1nnnc1Cn1c(=O)[nH]/c(=N\c2cc3cn(C)nc3cc2Cl)n(Cc2cc(F)c(F)cc2F)c1=O [Compound 22] | 200 to 500 nM | – |
| Cn1cc2cc(Nc3nc(=O)n(Cc4nnn[nH]4)c(=O)n3Cc3ccc(C(F)(F)F)cc3)c(Cl)cc2n1 [Compound 8, (E)-3-(1H-tetrazol-5-yl)methyl)-6-(6-chloro-2-methyl-2H-indazol-5-yl)imino)-1-(4-(trifluoromethyl)benzyl)-1,3,5-triazin-2,4-dione] | 500 to 1000 nM | – |
| Cc1cc(C)cc(Cn2c(=O)n(Cc3nnn[nH]3)c(=O)[nH]/c2=N\c2cc3cn(C)nc3cc2Cl)c1 [Compound 13] | 500 to 1000 nM | – |
| Cc1ccc(Cn2c(Nc3cc4cn(C)nc4cc3Cl)nc(=O)n(Cc3nnn[nH]3)c2=O)cc1 [Compound 3, (E)-3-(1H-tetrazol-5-yl)methyl)-6-(6-chloro-2-methyl-2H-indazol-5-yl)imino)-1-(4-methylbenzyl)-1,3,5-triazin-2,4-dione] | 500 to 1000 nM | – |
| CCn1nnnc1Cn1c(=O)[nH]/c(=N\c2ccc3nn(C)cc3c2)n(Cc2ccc([N+](=O)[O-])cc2)c1=O [Compound 19] | 200 to 500 nM | – |
| Cn1cc2cc(/N=c3\[nH]c(=O)n(Cc4nnn[nH]4)c(=O)n3Cc3ccc([N+](=O)[O-])cc3)c(Cl)cc2n1 [Compound 9] | > 1000 nM | – |
| Cn1cc2cc(/N=c3\[nH]c(=O)n(Cc4nnn[nH]4)c(=O)n3Cc3ccc(OC(F)(F)F)cc3)c(Cl)cc2n1 [Compound 11] | 500 to 1000 nM | – |
| Cn1cc2cc(/N=c3\[nH]c(=O)n(Cc4nnn[nH]4)c(=O)n3Cc3ccc(C(C)(C)C)cc3)c(Cl)cc2n1 [Compound 4] | 500 to 1000 nM | – |
